Reference: patent US5795615A, “Process for producing metal carboxylates for use as animal feed supplements” (priority 1995, dated 1998)

Tests used:
[1] = Comparative zinc bioavailability: growth parameters and zinc levels in blood and tibia ash of broilers; conditions: for Relative Biological Availability (%): Ending body weight (lbs) 21 days / Relative Biological Availability (%): Body weight gain (lbs) 21 days: broilers fed 21 days; for Relative Biological Availability (%): Ending body weight (lbs) 21 days: relative to zinc sulfate arbitrarily set at 100%, superscripts: means in a row without common superscript differ (P < 0.05, LSD)
Experimental: Each zinc treatment was replicated eight times and each pen contained ten male birds.
Basal feeds and zinc compound were mixed in a horizontal feed mixer providing the desired ingredient composition as shown in Table 4. The broilers were fed the rations for 21 days. Feed weights were taken during the trial. Body weights were measured at the beginning and at the end of the trial. On day 21, zinc levels in the blood and tibia ash were determined. The assay procedures for total tibia zinc content or concentration to assess zinc utilization are similar to those used by Wedekind et al., J. Anim. Sci., 70:178-187 (1992). The data were analyzed according to the SAS statistical package.
Chick growth parameters and zinc levels in the blood and tibia ash were used as criteria to determine the biological availability of zinc. […] The biological availability of zinc sulfate was arbitrarily set at 100%.

[2] = cited from earlier work
[3] = relative to zinc sulfate set at 100%, superscripts: P < 0.05, LSD
[4] = broilers, relative to zinc sulfate set at 100%, superscripts: P < 0.05, LSD
[5] = broilers, day 21, relative to zinc sulfate set at 100%, superscripts: P < 0.05, LSD

O=S(=O)([O-])[O-].[Zn+2] [Sulfate, zinc sulfate, reference compound]
Relative Biological Availability (%): Ending body weight (lbs) 21 days [1]: 100.00%
Relative Biological Availability (%): Body weight gain (lbs) 21 days [1, 3]: 100.00%
Relative Biological Availability (%): Feed conversion (corr.) 3-21 days [1, 4]: 100.00%
Relative Biological Availability (%): Bone ash (%) 21 days [1, 5]: 100.00%
Relative Biological Availability (%): Plasma Zinc (μg/ml) ([1]; chicken, in vivo, 30240 min): 100.00%
Relative Biological Availability (%): Tibia ash zinc (μg/g) ([1]; chicken, in vivo, 30240 min): 100.00%

[O]=[Zn] [Zinc oxide, zinc oxide]
solubility in water [2]: 0.00016 g/100 ml

CSCC[C@H](N)C(=O)O.O=S(=O)([O-])O.O=S(=O)([O-])O.[Zn+2] [Zinpro ®, Zinc methionine bisulfate]
ending body weights compared with zinc sulfate ([1]; both the 10 mg/kg and 20 mg/kg levels): statistically significant higher ending body weights
Relative Biological Availability (%): Ending body weight (lbs) 21 days [1]: 132.46%
Relative Biological Availability (%): Body weight gain (lbs) 21 days [1, 3]: 131.52%
Relative Biological Availability (%): Feed conversion (corr.) 3-21 days [1, 4]: 90.38%
Relative Biological Availability (%): Plasma Zinc (μg/ml) ([1]; broilers, day 21, plasma, relative to zinc sulfate set at 100%, superscripts: P < 0.05, LSD): 124.00%
Relative Biological Availability (%): Tibia ash zinc (μg/g) ([1]; broilers, day 21, tibia ash, relative to zinc sulfate set at 100%, superscripts: P < 0.05, LSD): 123.99%
Relative Biological Availability (%): Bone ash (%) 21 days [1, 5]: 113.95%
levels of zinc in the blood and tibia ash on day 21 ([1]; day 21, zinc propionate versus zinc methionine): comparable levels of zinc
